Experimental data from patent EP0519427A2, “N-substituted-3-iodopropiolamide, production and use thereof” (priority 1991, dated 1992).

Columns and labels:
[1] = test system: Tyromyces palustris (Ber. et Curt.) Murr., FFPRI 0507; test: Preserving activity for wood preservatives (weight loss of treated wood); format: cell-based; details: cedar sapwood specimens, 110 ± 10 g/m² preservative applied (0.5% xylene solution per table note), eight weeks at 26 ± 2 °C; lower = higher preserving activity
Method: (§1) This test was conducted according to Specification No.1 of Japan Wood Preserving Association, enacted in 1979, amended in 1989 and titled "Test methods of preserving activity for wood preservatives used in the coating, spraying and dipping treatment".
(§2) • ① Tyromyces palustris (Ber. et Curt.) Murr., FFPRI 0507 --"Ouzuratake" • ② Coriolus versicolor(L. ex Fr.) Quélet, FFPRI 1030 --"Kawaratake"
(§3) These two fungi are classified as wood rot fungi.
(§4) Culture media comprised culture jars (cylindrical jars of bottom diameter 8-9 cm, opening diameter 6-7 cm and height 15-18 cm), in which quartz sand of 250 g (the size of which corresponds to 20-30 mesh) was put first, and then the solution of 70 ml containing 2.0 % malt extracts and 1.0 % peptone was introduced, over which chips of the beech or other broadleaf tree were spread at about 2 mm thickness, and then sterilized at 120 °C for 30 minutes in the wet heated sterilizer.
(§5) Fungi were cultured at 26 ± 2 °C with shaking using the culture solution of 2.0 % malt extracts and 1.0 % peptone. After sufficient breeding was obtained, the fungi solution of about 3 ml was spread all over the culture medium, and then the fungi were cultured at 26 ± 2 °C with the relative humidity of over 70 %. After 10-15 days when the fungi layer sufficiently covered the culture medium, the fungi were served for the tests.
(§6) Wood specimens were the sapwood of intact cedar and beech, the dimension of which was 5 mm thick, 20 mm wide and 40 mm long. The grain face was of 20 mm width and 40 mm length. The side faces were treated with cold-setting epoxy resin.
(§7) The antimicrobial operation was performed with specifying types of fungi for corresponding type of trees. The combinations were as follows: Cedar----Tyromyces palustris ("Ouzuratake") Beech----Coriolus versicolor ("Kawaratake")
(§8) The test specimens were of two types, treated and untreated specimens, respectively.
(§9) The treated specimens referred to the wood specimens coated by brushing, spraying or dipping with wood preservatives. The amount of applied preservatives was 110 ± 10 g/m².
(§10) The amount of applied preservatives for each test specimen was calculated by the following equation:
(§11) The amount of applied preservatives (g/m²)=(W₁-W₂)/A wherein W₁ : weight of the test specimen after absorption(g), W₂ : weight of the test specimen before absorption(g) and A: surface area of test specimen except both butt surfaces (m²)
(§12) 2-7-1 The test specimens prepared in the previous section were dried at 60 ± 2 °C with a recirculating dryer for 48 hours, and were allowed to stand in a desiccator for about 30 minutes, and then the weight (W₃) was measured to an accuracy of 0.01 g.
(§13) 2-7-2 Three of each treated and untreated specimens were assembled in the Teflon casing. After sterilizing, the two assemblies were put on their 40 × 5 mm face on the fungi layer in the separate jar. They were kept at 26 ± 2 °C under the relative humidity of over 70 % for eight weeks.
(§14) 2-7-3 After the eight weeks had elapsed, the test specimens were taken out, and mycelia and other attachments of them were removed neatly. After air-drying for 24 hours, the test specimens were dried at 60 ± 2 °C in a recirculating dryer for 48 hours, and were allowed to stand in a desiccator for about 30 minutes, and then the weight (W₄) was measured to an accuracy of 0.01 g.
(§15) The test results were presented by the ratio of average weight loss of test specimens due to antimicrobial operation. The standard deviation and coefficient of variation were also determined. The ratio of weight loss for each test specimen was calculated by the following equation, and its average was also determined: The ratio of weight loss(%) = (W₃ - W₄) / W₃ × 100 [formula] . Lower value of the ratio of weight loss corresponds to higher wood preserving activity. […]

[2] = test system: Coriolus versicolor(L. ex Fr.) Quélet, FFPRI 1030; test: as above; format: cell-based; details: beech sapwood specimens, 110 ± 10 g/m² preservative applied (0.5% xylene solution per table note), eight weeks at 26 ± 2 °C; lower = higher preserving activity
Method: as §1, §2, §3, §4, §5, §6, §7, §8, §9, §10, §11, §12, §13, §14, §15

## CCCCCNC(=O)C#CI [Example 7, N-(n-Pentyl)-3-iodopropiolamide]
[1]
  Ratio of weight loss (%), T. palustris: 2.2%
[2]
  Ratio of weight loss (%), C. versicolor: 3.1%

## CCCCCCNC(=O)C#CI [Example 8, N-(n-Hexyl)-3-iodopropiolamide]
[1]
  Ratio of weight loss (%), T. palustris: 1.3%
[2]
  Ratio of weight loss (%), C. versicolor: 1.7%

## CCCCCCCCCCNC(=O)C#CI [Example 2, N-(n-Decyl)-3-iodopropiolamide]
[1]
  Ratio of weight loss (%), T. palustris: 0.2%
[2]
  Ratio of weight loss (%), C. versicolor: 15.9%

## CC(C)CNC(=O)C#CI [Example 6, N-Isobutyl-3-iodopropiolamide]
[1]
  Ratio of weight loss (%), T. palustris: 0.0%
[2]
  Ratio of weight loss (%), C. versicolor: 1.5%

## CC(C)(C)NC(=O)C#CI [Example 1, N-(tert-Butyl)-3-iodopropiolamide]
[1]
  Ratio of weight loss (%), T. palustris: 2.4%
[2]
  Ratio of weight loss (%), C. versicolor: 11.9%

## CCCCCCCCNC(=O)C#CI [Example 10, N-(n-Octyl)-3-iodopropiolamide]
[1]
  Ratio of weight loss (%), T. palustris: 5.0%
[2]
  Ratio of weight loss (%), C. versicolor: 8.4%

## CCC(C)NC(=O)C#CI (centres unmarked) [Example 5, N-(sec-Butyl)-3-iodopropiolamide]
[1]
  Ratio of weight loss (%), T. palustris: 2.5%
[2]
  Ratio of weight loss (%), C. versicolor: 7.2%

## CCCCNC(=O)C#CI [Example 4, N-(n-Butyl)-3-iodopropiolamide]
[1]
  Ratio of weight loss (%), T. palustris: 0.0%
[2]
  Ratio of weight loss (%), C. versicolor: 1.6%

## CCCCCCCNC(=O)C#CI [Example 9, N-(n-Heptyl)-3-iodopropiolamide]
[1]
  Ratio of weight loss (%), T. palustris: 3.3%
[2]
  Ratio of weight loss (%), C. versicolor: 12.0%

## CCCCCCCCCNC(=O)C#CI [Example 11, N-(n-Nonyl)-3-iodopropiolamide]
[1]
  Ratio of weight loss (%), T. palustris: 5.8%
[2]
  Ratio of weight loss (%), C. versicolor: 14.2%
